How the values were obtained:
MC4R [1] = molecular target: T1, MC4R (Homo sapiens, UniProt P32245); test: Binding affinity, 125I-NDP-α-MSH displacement on membranes; design: expressed in transfected cells; host or cells: HEK-293 cells; membranes collected; details: HEK-293 MC4R membrane, 0.02 nM 125I-NDP-α-MSH
Description: Five subtypes of melanocortin receptor (MCR) in vivo are known, and it is known that MC4R, which is Subtype 4, is involved in energy metabolism and weight control. Since other MCR subtypes are involved in the regulation of various functions in vivo such as skin pigmentation, energy homeostasis, and exocrine functions, securing selectivity for MC4R of MC4R agonist compounds is very important in preventing possible side effects in the future. Therefore, the receptor binding abilities of MC4R agonists for each MCR subtype were measured.
After the CHO-K1 cell line expressing human recombinant MC1R and the HEK-293 cell lines expressing MC3R, MC4R and MCSR were established, membranes were collected from each cell line. In a 96-well cell culture plate, 3 μg MC1R membrane and 0.04 nM ^125I-NDP-α-MSH per well were reacted at 37° C. for two hours. 3 μg MC3R and MCSR membrane and 0.035 nM ^125I-NDP-α-MSH were reacted at 37° C. for one hour, and 3.12 μg MC4R membrane and 0.02 nM ^125I-NDP-α-MSH were reacted at 37° C. for two hours. At this time, 25 mM HEPES-KOH adsorption buffer (pH 7.0) containing MCR agonist diluted at each step concentration was added to each well and reacted. The reacted solution was transferred to a filter and washed with an adsorption buffer, and then radioactivity was measured. The value excluding the non-specific binding amount in the presence of 1 μM (MC1R) and 3 μM (MC3R, MC4R, MCSR) of NDP-α-MSH from each total binding amount was used as specific binding amounts of ^125I-NDP-α-MSH. The degree to which the ^125I-NDP-α-MSH specific binding was inhibited by the agonist diluted at each step concentration was measured. IC50 was expressed as the concentration of each agonist that inhibited specific binding of 50% of ^125I-NDP-α-MSH.
Target sequence in this assay (P32245 whole entry): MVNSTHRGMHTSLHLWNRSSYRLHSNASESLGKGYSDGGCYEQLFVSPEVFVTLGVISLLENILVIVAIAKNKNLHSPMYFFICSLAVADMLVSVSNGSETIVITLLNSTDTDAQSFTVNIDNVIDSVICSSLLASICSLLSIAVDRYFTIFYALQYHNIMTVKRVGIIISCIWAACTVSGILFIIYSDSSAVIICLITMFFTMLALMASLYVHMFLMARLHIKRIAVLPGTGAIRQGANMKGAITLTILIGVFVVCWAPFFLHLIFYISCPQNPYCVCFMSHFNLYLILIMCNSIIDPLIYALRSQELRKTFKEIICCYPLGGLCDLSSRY

MC4R [2] = molecular target: T1, MC4R; test: Luciferase assay (HEK MC4R-Luc, CRE-LUC); assay type: cell-based; design: expressed in transfected cells; details: HEK MC4R-Luc cells, 5 h incubation
Description: In order to measure the agonist ability against MC4R (melanocortin-4 receptor), a cell line that permanently expresses the luciferase gene (CRE-LUC) under the control of MC4R and CRE (cAMP response element) was established. After a mammalian cell expression vector (pCDNA3 (Neo)) (Invitrogen) containing the MC4R gene was prepared, human embryonic kidney (HEK) cell lines were transformed by using Lipofectamine 2000 (Invitrogen) together with a vector (pCRE-Luc)(Stratagen) expressing a luciferase gene (CRE-LUC) under the control of a cAMP response element (CRE). Transformed cell lines (HEK MC4R-Luc) were incubated in a 37° C. incubator in the presence of 5% CO2 for 24 hours by using Dulbecco's Modified Eagles Medium (DMEM) containing 10% Heat-Inactivated Fetal Bovine Serum (GIBCO/BRL). The cell lines were incubated for four days in the presence of Dulbecco's Modified Eagles Medium (DMEM) containing 10 ml of selection medium (10% Heat-Inactivated Fetal Bovine Serum (GIBCO/BRL), 100 unit/ml of penicillin (GIBCO/BRL), 100 unit/ml of streptomycin (GIBCO/BRL), 800 μg/ml of Geneticin (G418) (GIBCO/BRL). The process of removing cells killed by the selection medium by replacing the medium with 10 ml of a new selection medium was repeated three times, once every 4 days. Individual colonies formed by the finally selected and propagated clones were transferred under a microscope to a 24-well cell culture plate containing 1 ml of selection medium per well and incubated for 4 days. Forskolin (SIGMA) was treated to a final concentration of 10 μM, and then incubated for five hours in a 37° C. incubator in the presence of 5% CO2. Each well was treated with 50 μl of a Bright-Glo luciferase reagent (Promega) and left at room temperature for 15 minutes, and then the luminescence of each well was measured by using a luminometer (Victor).
HEK MC4R-Luc cells were added to each well of a 96-well luminometer cell culture plate (Costar) to a size of 2.5×10^4 cells in 100 μl of a culture medium and then incubated in a 37° C. incubator in the presence of 6% CO2 for 18 hours. […] Each well was treated with 50 μl of a Bright-Glo luciferase reagent (Promega) and left at room temperature for five minutes, and then the luminescence of each well was measured by using a luminometer (Victor). […] EC0.5 MSH is expressed as a concentration that induces 50% of the maximum amount of luminescence that can be induced by NDP-α-MSH, and EC50 is expressed as a concentration that induces 50% of the maximum amount of luminescence that can be induced by each agonist. The measurements were measured using statistical software (Prizm).
Target sequence in this assay (P32245 whole entry, species assumed): as the sequence (P32245 whole entry) above

MC4R [3] = molecular target: T1, MC4R; test: β-arrestin assay (Pathhunter eXpress U2OS cell line); assay type: cell-based; design: expressed in transfected cells; host or cells: U2OS (Pathhunter eXpress β-arrestin cell line); details: U2OS cells, 90 min at 37° C.
Description: The melanocortin receptor is a type of G-protein coupled receptor (GPCR) and regulates various physiological responses by transducing signals from many neurotransmitters. When GPCR is phosphorylated, β-arrestin is bound to the phosphorylated part of the receptor and plays an important role in activating various signaling pathways in cells through interaction with other proteins. It is known that, when the melanocortin receptor interacts with an agonist, β-arrestin is mobilized and is involved in the β-arrestin-mediated signaling pathway. Therefore, the activity of the melanocortin receptor can be evaluated through the measurement of β-arrestin.
A Pathhunter eXpress β-arrestin cell line (U2OS cell line) in which Prolink (PK)-tagged MC1R, MC3R, MC4R, MC5R and Enzyme acceptor (EA)-tagged β-arrestin were expressed together was established. When the MCR-PK portion of this cell line is activated, β-arrestin-EA is mobilized, and enzyme acceptor (EA) and Prolink (PK), which are the β-galactosidase enzyme fragments, interact. The activated enzyme hydrolyzes the substrate by β-galactosidase activity to produce a chemiluminescent signal, so that the activity can be measured. After the Pathhunter eXpress β-arrestin cell line (U2OS cell line) was incubated, the cells were inoculated into each well of the cell culture plate and incubated for 48 hours in a 37° C. incubator in the presence of 5% CO2. After the incubation, 5 μl of the sample diluted 5 times with buffer was added, the vehicle concentration was set to 1%, and the MC4R agonist compound diluted at each step concentration was added, followed by reaction at 37° C. for 90 minutes. The activity (%) of each agonist compound is expressed as 100%×(average RLU value of sample−average RLU value of vehicle control)/(average maximum value of control ligand−average RLU value of vehicle control), and the value was analyzed by CBIS data analysis suite (ChemInnovation, CA).
Target sequence in this assay (P32245 whole entry): as above
Target sequence in this assay (P32121 whole entry partner): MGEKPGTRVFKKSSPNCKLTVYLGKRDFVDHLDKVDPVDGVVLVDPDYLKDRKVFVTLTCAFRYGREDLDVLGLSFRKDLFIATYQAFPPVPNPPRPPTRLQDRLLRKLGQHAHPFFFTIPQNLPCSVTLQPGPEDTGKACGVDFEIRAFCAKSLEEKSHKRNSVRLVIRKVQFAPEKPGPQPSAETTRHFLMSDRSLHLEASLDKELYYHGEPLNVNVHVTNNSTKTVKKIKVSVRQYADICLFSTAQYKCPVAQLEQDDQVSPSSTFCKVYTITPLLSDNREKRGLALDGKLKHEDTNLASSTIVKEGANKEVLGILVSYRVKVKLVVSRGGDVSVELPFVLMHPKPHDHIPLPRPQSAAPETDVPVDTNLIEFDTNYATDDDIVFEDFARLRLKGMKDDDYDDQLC

SMILES	Ki (MC4R [1])	EC50 (MC4R [2])	EC50 (MC4R [3])
CC(=O)N(C1CCC(C)(C)CC1)[C@H]1C[C@@H](C(=O)N2CCOCC2)N(C(=O)[C@@H]2CN(C(C)(C)C)C[C@H]2c2ccc(F)cc2F)C1.Cl [Comparative Example 1 (A95), N-((3S,5S)-1-((3S,4R)-1-(tert-butyl)-4-(2,4-difluorophenyl)pyrrolidine-3-carbonyl)-5-(morpholine-4-carbonyl)pyrrolidin-3-yl)-N-(4,4-dimethylcyclohexyl)acetamide hydrochloride]	1400 nM	17.4 nM	176 nM
CC(=O)N(C1CCC(C)(C)CC1)[C@H]1C[C@@H](C(=O)N2CCOCC2)N(C(=O)[C@@H]2CN(C(C)(C)C)C[C@H]2c2ccc(Cl)cc2)C1.Cl [Comparative Example 2 (A96), N-((3S,5S)-1-((3S,4R)-1-(tert-butyl)-4-(4-chlorophenyl)pyrrolidine-3-carbonyl)-5-(morpholine-4-carbonyl)pyrrolidin-3-yl)-N-(4,4-dimethylcyclohexyl)acetamide hydrochloride]	360 nM	5.48 nM	44.3 nM
CC(C)C(=O)N([C@H]1C[C@@H](C(=O)N2CCOCC2)N(C(=O)[C@@H]2CN(C(C)(C)C)C[C@H]2c2ccc(Cl)cc2)C1)[C@H]1CC[C@@H](C)CC1.Cl [Example 1, N-((3S,5S)-1-((3S,4R)-1-(tert-butyl)-4-(4-chlorophenyl)pyrrolidine-3-carbonyl)-5-(morpholine-4-carbonyl)pyrrolidin-3-yl)-N-((1s,4R)-4-methylcyclohexyl)isobutyramide hydrochloride]	65 nM	0.562 nM	4.6 nM
